According to US20070128285A1, “Pharmaceutical composition for oral administration” (priority 2005, published 2007):

Assay: Stability of setron drug aqueous solutions (0.1 w/w %) at pH 8 to 3, stored at 40° C. for three months
Assay type: physicochemical
Details: 0.1 w/w % aqueous solution
Description: The present inventors have investigated the stability of each setron drug (azasetron, granisetron, tropisetron, ramosetron, or ondansetron) in the aqueous solution of pH 8 to3. That is, an aqueous solution of each setron drug (0.1 w/w %) was adjusted to various pH values (pH 8 to 3) with hydrochloric acid or sodium hydroxide. After storing at 40° C. for three months, the external appearance and taste of the solution were observed. As a result, for each of the setron drugs, the aqueous solution of pH 8 is colored faint yellow, but the aqueous solution of pH 3 to 7 is colorless.

[1] = pH 3 to 7, stored at 40° C. for three months
[2] = pH 8, stored at 40° C. for three months

| external appearance (color) of the aqueous solution [1] | external appearance (color) of the aqueous solution [2] | Compound |
| --- | --- | --- |
| colorless | faint yellow | CN1C(=O)COc2c(C(=O)NC3CN4CCC3CC4)cc(Cl)cc21 (stereo not shown) [azasetron] |
| colorless | faint yellow | Cn1cc(C(=O)[C@@H]2CCc3nc[nH]c3C2)c2ccccc21 [ramosetron] |
| colorless | faint yellow | CN1C2CCCC1CC(NC(=O)c1nn(C)c3ccccc13)C2 (stereo not shown) [granisetron] |
| colorless | faint yellow | Cc1nccn1CC1CCc2c(c3ccccc3n2C)C1=O (stereo not shown) [ondansetron] |
| colorless | faint yellow | CN1[C@@H]2CC[C@H]1C[C@@H](OC(=O)c1c[nH]c3ccccc13)C2 [tropisetron] |
